These results are taken from patent US10047098B2, “C5-C6-oxacyclic fused iminopyrimidinone compounds as bace inhibitors, compositions, and their use” (Merck Sharp & Dohme Corp., priority 2014, dated 2018).

Experiment [1] has as its target purified human autoBACE-2 (Homo sapiens (Human), UniProt Q9Y5Z0). The experiment is described as follows: BACE-2 Assay (BACE-HTRF assay). Type of experiment: biochemical. Conditions: Ki calculated from IC50 using the Cheng-Prusoff equation; QSY7-EISEVNLDAEFC-Eu-amide substrate, pH 5.0. How it is done:
Inhibitor IC50s at purified human autoBACE-2 are determined in a time-resolved endpoint proteolysis assay that measures hydrolysis of the QSY7-[…]-Eu-amide FRET peptide substrate (BACE-HTRF assay). […] DMSO is present at 5% final concentration in the assay. Following laser excitation of sample wells at 320 nm, the fluorescence signal at 620 nm is collected for 400 ms following a 50 μs delay on a RUBYstar HTRF plate reader (BMG Labtechnologies). Raw RFU data is normalized to maximum (1.0 nM BACE/DMSO) and minimum (no enzyme/DMSO) RFU values. […] The Ki values are calculated from the IC50 using the Cheng-Prusoff equation.

In experiment [2] the target is Recombinant human soluble BACE1 catalytic domain (Homo sapiens (Human), UniProt P56817). The experiment is described as follows: BACE1 HTRF FRET Assay. Type of experiment: biochemical. Conditions: Ki calculated from IC50 using the Cheng-Prusoff equation; QSY7-APPswe-Eu substrate, pH 5.0; read-out: BACE-1 Ki. An excerpt: Reagents: Na^+-Acetate pH 5.0; 1% Brij-35; Glycerol; Dimethyl Sulfoxide (DMSO); Recombinant human soluble BACE1 catalytic domain (>95% pure); APP Swedish mutant peptide substrate (QSY7-APP^swe-Eu): QSY7-EISEVNLDAEFC-Europium-amide.
A homogeneous time-resolved FRET assay can be used to determine IC50 values for inhibitors of the soluble human BACE1 catalytic domain. This assay monitors the increase of 620 nm fluorescence that resulted from BACE1 cleavage of an APPswedish APP^swe mutant peptide FRET substrate (QSY7-EISEVNLDAEFC-Europium-amide). This substrate contains an N-terminal QSY7 moiety that serves as a quencher of the C-terminal Europium fluorophore (620 nm Em). In the absence of enzyme activity, 620 nm fluorescence is low in the assay and increased linearly over 3 hours in the presence of uninhibited BACE1 enzyme. Inhibition of BACE1 cleavage of the QSY7-APP^swe-Eu substrate by inhibitors is manifested as a suppression of 620 nm fluorescence.
Varying concentrations of inhibitors at 3× the final desired concentration in a volume of 10 ul are preincubated with purified human BACE1 catalytic domain (3 nM in 10 μl) for 30 minutes at 30° C. in reaction buffer containing 20 mM Na-Acetate pH 5.0, 10% glycerol, 0.1% Brij-35 and 7.5% DSMO. Reactions are initiated by addition of 10 μl of 600 nM QSY7-APP^swe-Eu substrate (200 nM final) to give a final reaction volume of 30 μl in a 384 well Nunc HTRF plate. The reactions are incubated at 30° C. for 1.5 hours. The 620 nm fluorescence is then read on a Rubystar HTRF plate reader (BMG Labtechnologies) using a 50 millisecond delay followed by a 400 millisecond acquisition time window. Inhibitor IC50 values are derived from non-linear regression analysis of concentration response curves. Ki values are then calculated from IC50 values using the Cheng-Prusoff equation using a previously determined […] of 8 μM for the QSY7-APP^swe-Eu substrate at BACE1.

Sequence of Recombinant human soluble BACE1 catalytic domain (P56817 75-416): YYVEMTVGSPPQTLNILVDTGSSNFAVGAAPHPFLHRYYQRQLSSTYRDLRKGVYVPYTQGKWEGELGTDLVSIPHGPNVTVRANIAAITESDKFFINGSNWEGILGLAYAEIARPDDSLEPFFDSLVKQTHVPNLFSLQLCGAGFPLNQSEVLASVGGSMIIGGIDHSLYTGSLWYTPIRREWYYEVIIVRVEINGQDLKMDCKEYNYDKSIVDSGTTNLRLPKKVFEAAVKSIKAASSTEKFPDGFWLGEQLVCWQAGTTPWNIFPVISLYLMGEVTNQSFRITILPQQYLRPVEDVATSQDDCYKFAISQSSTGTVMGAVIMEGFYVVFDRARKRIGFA
Sequence of purified human autoBACE-2 (Q9Y5Z0 63-473 limits assumed): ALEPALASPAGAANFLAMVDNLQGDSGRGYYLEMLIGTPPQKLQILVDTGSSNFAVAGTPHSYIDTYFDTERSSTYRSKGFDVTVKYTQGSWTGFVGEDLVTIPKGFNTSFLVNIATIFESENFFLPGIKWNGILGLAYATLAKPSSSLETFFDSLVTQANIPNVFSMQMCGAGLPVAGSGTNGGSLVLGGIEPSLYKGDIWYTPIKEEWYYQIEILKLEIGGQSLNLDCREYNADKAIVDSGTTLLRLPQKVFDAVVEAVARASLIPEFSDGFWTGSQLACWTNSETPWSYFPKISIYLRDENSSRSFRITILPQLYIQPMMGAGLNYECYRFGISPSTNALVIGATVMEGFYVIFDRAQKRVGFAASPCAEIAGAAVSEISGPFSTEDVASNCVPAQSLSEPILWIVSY

A word on the Ki: it is the equilibrium dissociation constant of an inhibitor or competing ligand from its target. On to `COC[C@H]1C[C@H]2C(=O)N(C)C(=N)N[C@@]2(c2cc(OCC3CC3)ccc2F)CO1` [Example 32, (4aR,6R,8aS)-8a-(5-(cyclopropylmethoxy)-2-fluorophenyl)-2-imino-6-(methoxymethyl)-3-methylhexahydro-1H-pyrano[3,4-d]pyrimidin-4(4aH)-one], for which the results for the Ki in experiment [1] and in experiment [2] were 9 nM and 21 nM, respectively.
Regarding `CN1C(=N)N[C@@]2(c3cc(Oc4cccc(-n5cccn5)n4)ccc3F)CO[C@@H](C3CC3)C[C@H]2C1=O` [Example 34, (4aR,6R,8aS)-8a-(5-((6-(1H-pyrazol-1-yl)pyridin-2-yl)oxy)-2-fluorophenyl)-6-cyclopropyl-2-imino-3-methylhexahydro-1H-pyrano[3,4-d]pyrimidin-4(4aH)-one], the values for the Ki in experiment [1] and in experiment [2] were 13.5 nM and 2.2 nM, respectively.
Taken in the same sequence, the figures for `CN1C(=N)N[C@@]2(c3cc(Oc4cccc(-c5cocn5)c4)ccc3F)CO[C@@H](C3CC3)C[C@H]2C1=O` [Example 35] were 86 nM and 13 nM.
Taken in the same sequence, the figures for `C[C@H]1C[C@H]2C(=O)N(C)C(=N)N[C@@]2(c2cc(Oc3ncc(F)cc3F)ccc2F)CO1` [Example 36, (4aR,6S,8aS)-8a-(5-((3,5-difluoropyridin-2-yl)oxy)-2-fluorophenyl)-2-imino-3,6-dimethylhexahydro-1H-pyrano[3,4-d]pyrimidin-4(4aH)-one] were 24 nM and 8.9 nM.
Turning to `CN1C(=N)N[C@@]2(c3cc(OCC45CC(C#N)(C4)C5)ccc3F)CO[C@@H](C3CC3)C[C@H]2C1=O` [Example 37, 3-((3-((4aR,6R,8aS)-6-cyclopropyl-2-imino-3-methyl-4-oxohexahydro-1H-pyrano[3,4-d]pyrimidin-8a(8H)-yl)-4-fluorophenoxy)methyl)bicyclo[1.1.1]pentane-1-carbonitrile], the Ki in experiment [1] is 127 nM; in experiment [2] it was 9 nM.
For `CN1C(=N)N[C@@]2(c3cc(C#N)ccc3F)CO[C@@H](C3CC3)C[C@H]2C1=O` [Example 38, 3-((4aR,6R,8aS)-6-cyclopropyl-2-imino-3-methyl-4-oxohexahydro-1H-pyrano[3,4-d]pyrimidin-8a(8H)-yl)-4-fluorobenzonitrile] the same measures were 398 nM and 206 nM.
Consider `CN1C(=N)N[C@@]2(c3cc(Oc4cnccn4)ccc3F)CO[C@@H](C3CC3)C[C@H]2C1=O` [Example 39, (4aR,6R,8aS)-6-cyclopropyl-8a-(2-fluoro-5-(pyrazin-2-yloxy)phenyl)-2-imino-3-methylhexahydro-1H-pyrano[3,4-d]pyrimidin-4(4aH)-one], for which the Ki is 73 nM in experiment [1] and 13 nM in experiment [2].
In the case of `CN1C(=N)N[C@@]2(c3cc(Oc4ccncc4)ccc3F)CO[C@@H](C3CC3)C[C@H]2C1=O` [Example 40, (4aR,6R,8aS)-6-cyclopropyl-8a-(2-fluoro-5-(pyridin-4-yloxy)phenyl)-2-imino-3-methylhexahydro-1H-pyrano[3,4-d]pyrimidin-4(4aH)-one], the inhibition constant Ki in experiment [1] is 11 nM; in experiment [2], 54 nM.
For `CN1C(=N)N[C@@]2(c3cc(Oc4ccnnc4)ccc3F)CO[C@@H](C3CC3)C[C@H]2C1=O` [Example 41, (4aR,6R,8aS)-6-cyclopropyl-8a-(2-fluoro-5-(pyridazin-4-yloxy)phenyl)-2-imino-3-methylhexahydro-1H-pyrano[3,4-d]pyrimidin-4(4aH)-one] the same measures were 65 nM and 106 nM.
Turning to `COc1cncc(Oc2ccc(F)c([C@]34CO[C@@H](C5CC5)C[C@H]3C(=O)N(C)C(=N)N4)c2)n1` [Example 42, (4aR,6R,8aS)-6-cyclopropyl-8a-(2-fluoro-5-((6-methoxypyrazin-2-yl)oxy)phenyl)-2-imino-3-methylhexahydro-1H-pyrano[3,4-d]pyrimidin-4(4aH)-one], the Ki is 51 nM in experiment [1] and 7 nM in experiment [2].
Taken in the same sequence, the figures for `CN1C(=N)N[C@@]2(c3cc(Oc4ncccn4)ccc3F)CO[C@@H](C3CC3)C[C@H]2C1=O` [Example 43, (4aR,6R,8aS)-6-cyclopropyl-8a-(2-fluoro-5-(pyrimidin-2-yloxy)phenyl)-2-imino-3-methylhexahydro-1H-pyrano[3,4-d]pyrimidin-4(4aH)-one] were 191 nM and 52 nM.
With `CN1C(=N)N[C@@]2(c3cc(OCC4CCC4)ccc3F)CO[C@@H](C3CC3)C[C@H]2C1=O` [Example 44, (4aR,6R,8aS)-8a-(5-(cyclobutylmethoxy)-2-fluorophenyl)-6-cyclopropyl-2-imino-3-methylhexahydro-1H-pyrano[3,4-d]pyrimidin-4(4aH)-one], the Ki was 20 nM in experiment [1] and 30 nM in experiment [2].
Taken in the same sequence, the figures for `CC(C)COc1ccc(F)c([C@]23CO[C@@H](C4CC4)C[C@H]2C(=O)N(C)C(=N)N3)c1` [Example 45, (4aR,6R,8aS)-6-cyclopropyl-8a-(2-fluoro-5-isobutoxyphenyl)-2-imino-3-methylhexahydro-1H-pyrano[3,4-d]pyrimidin-4(4aH)-one] were 25 nM and 45 nM.
Taken in the same sequence, the figures for `CN1C(=N)N[C@@]2(c3cc(OCC(F)F)ccc3F)CO[C@@H](C3CC3)C[C@H]2C1=O` [Example 46, (4aR,6R,8aS)-6-cyclopropyl-8a-(5-(2,2-difluoroethoxy)-2-fluorophenyl)-2-imino-3-methylhexahydro-1H-pyrano[3,4-d]pyrimidin-4(4aH)-one] were 41 nM and 40 nM.
Consider `COC[C@@H]1C[C@H]2C(=O)N(C)C(=N)N[C@@]2(c2ccc(F)cc2F)CO1` [Example 47, (4aR,6S,8aS)-8a-(2,4-difluorophenyl)-2-imino-6-(methoxymethyl)-3-methylhexahydro-1H-pyrano[3,4-d]pyrimidin-4(4aH)-one], for which the results for the Ki in experiment [1] and in experiment [2] were 9300 nM and 5720 nM, respectively.
Taken in the same sequence, the figures for `COC(=O)[C@@H]1C[C@H]2C(=O)N(C)C(=N)N[C@@]2(c2ccc(F)cc2F)CO1` [Example 48, methyl (4aR,6S,8aS)-8a-(2,4-difluorophenyl)-2-imino-3-methyl-4-oxooctahydro-1H-pyrano[3,4-d]pyrimidine-6-carboxylate] were 1380 nM and 1110 nM.
For `CCCOc1ccc(F)c([C@]23CO[C@@H](C4CC4)C[C@H]2C(=O)N(C)C(=N)N3)c1` [Example 49, (4aR,6R,8aS)-6-cyclopropyl-8a-(2-fluoro-5-propoxyphenyl)-2-imino-3-methylhexahydro-1H-pyrano[3,4-d]pyrimidin-4(4aH)-one] the same measures were 64 nM and 66 nM.
Taken in the same sequence, the figures for `COCCOc1ccc(F)c([C@]23CO[C@@H](C4CC4)C[C@H]2C(=O)N(C)C(=N)N3)c1` [Example 50, (4aR,6R,8aS)-6-cyclopropyl-8a-(2-fluoro-5-(2-methoxyethoxy)phenyl)-2-imino-3-methylhexahydro-1H-pyrano[3,4-d]pyrimidin-4(4aH)-one] were 68 nM and 92 nM.
Take `CN1C(=N)N[C@@]2(c3cc(OCC4CC(F)(F)C4)ccc3F)CO[C@@H](C3CC3)C[C@H]2C1=O` [Example 51, (4aR,6R,8aS)-6-cyclopropyl-8a-(5-((3,3-difluorocyclobutyl)methoxy)-2-fluorophenyl)-2-imino-3-methylhexahydro-1H-pyrano[3,4-d]pyrimidin-4(4aH)-one]: the figures for the Ki in experiment [1] and in experiment [2] were 42 nM and 55 nM, respectively.
Taken in the same sequence, the figures for `CN1C(=N)N[C@@]2(c3cc(OCC4CC4(F)F)ccc3F)CO[C@@H](C3CC3)C[C@H]2C1=O` (stereo partly drawn) [Example 52] were 18 nM and 31 nM.
As to `COC1CC(COc2ccc(F)c([C@]34CO[C@@H](C5CC5)C[C@H]3C(=O)N(C)C(=N)N4)c2)C1` (stereo partly drawn) [Example 53, (4aR,6R,8aS)-6-cyclopropyl-8a-(2-fluoro-5-((3-methoxycyclobutyl)methoxy)phenyl)-2-imino-3-methylhexahydro-1H-pyrano[3,4-d]pyrimidin-4(4aH)-one], the Ki in experiment [1] is 117 nM; in experiment [2], 180 nM.
